Here are results for 23 compounds from ChEMBL document CHEMBL1128835, “The antitumor activity of novel pyrazoloquinoline derivatives” (Bioorg Med Chem Lett, 1995).

pIC50: −log10 of the molar value.

One test has as its system P388. Briefly: In vitro cytotoxicity was evaluated following 1 hour transient exposure of P388 mouse leukemia cells to the compound. It is filed as functional, cell-based. The conditions noted are these: P388, 1 h.
Test [1] has as its system Mus musculus. The experiment in a line: In vivo antitumor activity was measured as the maximum dose tolerated by murine when administered intravenously. The format is functional.
The species entered for test [2] is Mus musculus. Briefly: Tested for tumor growth inhibition in mice. The format is functional.
The target in another test is DNA topoisomerase II (Homo sapiens, UniProt P11388+Q02880). The experiment in a line: Compound was tested for topoisomerase II inhibition in purified HeLa cells by SDS/K+ precipitation method. It is filed as cell-based.
The subject of test [3] is Mus musculus. The experiment in a line: In vivo antitumor activity was measured as the maximum dose tolerated by murine when administered subcutaneously. It is filed as functional.

For orientation: pIC50 means the negative decadic logarithm of the IC50, by convention in mol/L. As usually defined, the MTD is the highest dose tested that stayed within the study's limit of toxicity. A high value points to better tolerability. In general, T/C refers to the ratio of treated to control. Broadly, the EC50 is the concentration needed to bring the measured effect to its halfway point. The low end stands for higher potency in that assay, the high end for lower potency in that assay. `Cc1cc(-c2c(F)cc3c4nn(C5CCN(C)CC5)c(=O)c-4cn(C4CC4)c3c2F)cc(C)n1` gave a pIC50 in the test on P388 of 7.03. The compound also had an MTD in the test with Mus musculus [1] of 128 mg/kg. In addition, the T/C in the test filed under Mus musculus [2] turned out to be 24%. Moreover, at DNA topoisomerase II, the EC50 was determined as 3.2 µM.
Compound `CC(=O)N[C@H]1CC[C@@H](n2nc3c4cc(F)c(-c5cc(C)nc(C)c5)c(F)c4n(C4CC4)cc-3c2=O)CC1` gave a pIC50 in the test on P388 of 5.89. Further, at DNA topoisomerase II, the EC50 was found to be 7.4 µM.
`Cc1cc(-c2c(F)cc3c4nn(CCN(C)C)c(=O)c-4cn(C4CC4)c3c2F)cc(C)n1`: in the test on P388, the pIC50 is 6.59. This compound also yielded an MTD with Mus musculus [1] of 34 mg/kg. Also, in the test filed under Mus musculus [2], the T/C amounted to 8%. At DNA topoisomerase II, this compound came in with a half-maximal effective concentration (EC50) of 2.6 µM.
On the same counts, the results for `Cc1cc(-c2c(F)cc3c4nn(C5CCCCC5)c(=O)c-4cn(C4CC4)c3c2F)cc(C)n1` are 6.17, 140 mg/kg, 18% and 0.9 µM.
On the same counts, the results for `Cc1cc(-c2c(F)cc3c4nn([C@H]5CC[C@H](N(C)C)CC5)c(=O)c-4cn(C4CC4)c3c2F)cc(C)n1` are 6.59, 390 mg/kg, 2% and 4.4 µM.
As for `Cc1cc(-c2c(F)cc3c4n[nH]c(=O)c-4cn(C4CC4)c3c2F)cc(C)n1`, the pIC50 in the test with P388 is 5.10. In the test on Mus musculus [3], this compound had an MTD of 2500 mg/kg. Moreover, the T/C in the test listed under Mus musculus [2] is on record as over 100%. On DNA topoisomerase II, this compound registered a half-maximal effective concentration (EC50) of 11 µM.
The compound `Cc1cc(-c2c(F)cc3c4nn(C5CCC(C)CC5)c(=O)c-4cn(C4CC4)c3c2F)cc(C)n1` (centres undefined) showed a pIC50 in the test on P388 of 5.85. Besides, the EC50 on DNA topoisomerase II stood at 3.1 µM.
Compound `Cc1cc(-c2c(F)cc3c4nn(CCCN(C)C)c(=O)c-4cn(C4CC4)c3c2F)cc(C)n1` showed a pIC50 in the test with P388 of 6.80. The compound also returned an MTD in the test with Mus musculus [1] of 64 mg/kg. Also, the T/C in the test filed under Mus musculus [2] came out at 35%. Besides, at DNA topoisomerase II, the EC50 came to 1.7 µM.
Taken in the same sequence, the figures for `Cc1cc(-c2c(F)cc3c4nn([C@H]5CC[C@@H](N)CC5)c(=O)c-4cn(C4CC4)c3c2F)cc(C)n1` were 6.36, 110 mg/kg, 21% and 0.5 µM.
The compound `Cc1cc(-c2c(F)cc3c4nn(C)c(=O)c-4cn(C4CC4)c3c2F)cc(C)n1` had a pIC50 in the test with P388 of 5.51. Further, the EC50 at DNA topoisomerase II was found to be 5.9 µM.
Taken in the same sequence, the figures for `Cc1cc(-c2c(F)cc3c4nn(CCO)c(=O)c-4cn(C4CC4)c3c2F)cc(C)n1` were 5.70 and 6.4 µM.
Compound `CCOC(=O)Cn1nc2c3cc(F)c(-c4cc(C)nc(C)c4)c(F)c3n(C3CC3)cc-2c1=O` showed a pIC50 in the test on P388 of 5.29. For the same compound, the EC50 on DNA topoisomerase II amounted to 6.1 µM.
`Cc1cc(-c2c(F)cc3c4nn(CCNCCO)c(=O)c-4cn(C4CC4)c3c2F)cc(C)n1` had a pIC50 in the test with P388 of 5.89. Besides, in the test on Mus musculus [1], the MTD is 1410 mg/kg. The compound further had a T/C in the test listed under Mus musculus [2] of 42%. For the same compound, the EC50 on DNA topoisomerase II came out at 3.3 µM.
In the test on P388, `Cc1cc(-c2c(F)cc3c4nn(CC(=O)O)c(=O)c-4cn(C4CC4)c3c2F)cc(C)n1` had a pIC50 of under 3.70. At DNA topoisomerase II, this compound registered an EC50 of 10 µM.
`Cc1cc(-c2c(F)cc3c4nn(-c5ccccc5)c(=O)c-4cn(C4CC4)c3c2F)cc(C)n1`: the pIC50 with P388 was 5.74. This compound also gave an MTD with Mus musculus [3] of 635 mg/kg. The compound further registered a T/C in the test filed under Mus musculus [2] of over 100%.
Regarding `Cc1cc(-c2c(F)cc3c4nn([C@H]5CC[C@@H](N(C)C)CC5)c(=O)c-4cn(C4CC4)c3c2F)cc(C)n1`, the pIC50 in the test with P388 was 7.17. The same compound gave an MTD with Mus musculus [1] of 63 mg/kg. This compound also came in with a T/C in the test listed under Mus musculus [2] of 5%. This compound registered an EC50 on DNA topoisomerase II of 1.7 µM.
In the test with P388, `CC(=O)N[C@H]1CC[C@H](n2nc3c4cc(F)c(-c5cc(C)nc(C)c5)c(F)c4n(C4CC4)cc-3c2=O)CC1` had a pIC50 of 5.92. The compound further displayed a concentration giving a half-maximal response (EC50) on DNA topoisomerase II of 9.8 µM.
`Cc1cc(-c2c(F)cc3c(=O)ccn(C4CC4)c3c2F)cc(C)n1` showed a pIC50 in the test on P388 of 4.82. In the test with Mus musculus [3], this compound registered an MTD of 1950 mg/kg. This compound also came in with a T/C in the test listed under Mus musculus [2] of over 100%.
Consider `Cc1cc(-c2c(F)cc3c4nn(C5CCOCC5)c(=O)c-4cn(C4CC4)c3c2F)cc(C)n1`, for which the pIC50 in the test with P388 was 6.54. Besides, the EC50 on DNA topoisomerase II was determined as 1.7 µM.
As for `Cc1cc(-c2c(F)cc3c4nn([C@H]5CC[C@H](N)CC5)c(=O)c-4cn(C4CC4)c3c2F)cc(C)n1`, in the test with P388, the pIC50 is 5.82. Also, the MTD in the test on Mus musculus [1] was determined as 550 mg/kg. In the test filed under Mus musculus [2], this compound registered a T/C of 42%. Besides, the half-maximal effective concentration (EC50) on DNA topoisomerase II worked out at 4.2 µM.
As to `COc1cc(NS(C)(=O)=O)ccc1Nc1c2ccccc2nc2ccccc12` [AMSACRINE], the negative logarithm of the IC50 (pIC50) in the test on P388 was 6.82. In the test on Mus musculus [1], this compound came in with an MTD of 48 mg/kg. The same compound gave a T/C in the test listed under Mus musculus [2] of 0%.
As for `COc1cc([C@@H]2c3cc4c(cc3[C@@H](O[C@@H]3O[C@@H]5CO[C@@H](C)O[C@H]5[C@H](O)[C@H]3O)[C@H]3COC(=O)[C@H]23)OCO4)cc(OC)c1O` [ETOPOSIDE], in the test with Mus musculus [1], the MTD amounted to 96 mg/kg. This compound yielded a T/C in the test filed under Mus musculus [2] of 3%.
In the case of `Cc1cc(-c2c(F)cc3c(=O)c(C(=O)O)cn(C4CC4)c3c2F)cc(C)n1` [WIN-57294], the MTD in the test with Mus musculus [3] was 600 mg/kg. Moreover, the T/C in the test listed under Mus musculus [2] was determined as 31%.
